{"source": "the supplement of paper PMC11208160"}
{"assay": "recombinant UMI read abundance after kanamycin selection (control-corrected) (log10(CPM+1)); higher = more efficient recombination; extreme values may be limits of the assay; sequences stand for … in AGTGCAGAGAAAATCGGCCAGTTTTCTCTGCCTGCAGTCCGCATGCCGTGGGACCCCTTGGGTTCTAACCTGTTGCCTAGATTTATGCAGCGGACTGCCTTTCTCCCAAAGTGATAAACCGG…AGGTTGGTTTCACT; site = the 11-nt donor", "in_short": "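The measure is log10(CPM+1) for recombinant UMIs. These were PCR-amplified across the donor–target junction and sequenced after Escherichia coli carrying a donor and donor-binding-loop pair library and a target plasmid with T7-inducible IS621 bridge recombinase was plated on IPTG (0.07 mM) plus kanamycin or unselected. CPM were averaged over two replicates and scaled by control-derived factors.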"}
{"sequence": "TGCTAGGCATGGACCGGTTTTCCCGGTAATCCGTATTTGGT (site TGTTAGGCTAC)", "recombinant UMI read abundance (log10)": 0.026}
{"sequence": "TGCTAGGCATGGACCGGTTTTCCCGGTAATCCGTATTTGGT (site TTCTAGGCTAC)", "recombinant UMI read abundance (log10)": 0.0121}
{"sequence": "TGCTAGTCATGGACCGGTTTTCCCGGTAATCCGTATTTGGT (site TGCTAGACTAC)", "recombinant UMI read abundance (log10)": 0.00505}
{"sequence": "TGCTAGTCATGGACCGGTTTTCCCGGTAATCCGTATTTGGT (site TGCTAGCCTAC)", "recombinant UMI read abundance (log10)": 0.0102}
{"sequence": "TGCTAGTCATGGACCGGTTTTCCCGGTAATCCGTATTTGGT (site TGCTAGGCTAC)", "recombinant UMI read abundance (log10)": 0.00963}
{"sequence": "TGCTAGTCATGGACCGGTTTTCCCGGTAATCCGTATTTGGT (site TGCTAGTCTAC)", "recombinant UMI read abundance (log10)": 1.07}
{"sequence": "TGCTCAGCATGGACCGGTTTTCCCGGTAATCCGTATTTGGG (site AGCTCAGCTCC)", "recombinant UMI read abundance (log10)": 0.0267}
{"sequence": "TGCTCAGCATGGACCGGTTTTCCCGGTAATCCGTATTTGGG (site CGCTCAGCTCC)", "recombinant UMI read abundance (log10)": 0.0151}
{"sequence": "TGCTCAGCATGGACCGGTTTTCCCGGTAATCCGTATTTGGG (site GGCTCAGCTCC)", "recombinant UMI read abundance (log10)": 0.0391}
{"sequence": "TGCTCAGCATGGACCGGTTTTCCCGGTAATCCGTATTTGGG (site TGCTCAGCTCC)", "recombinant UMI read abundance (log10)": 0.00921}
{"sequence": "TGCTCGGCATGGACCGGTTTTCCCGGTAATCCGTATTTGAT (site TGCTCGGCTAT)", "recombinant UMI read abundance (log10)": 0.54}
{"sequence": "TGCTCGGCATGGACCGGTTTTCCCGGTAATCCGTATTTGGT (site TGCTAGGCTAC)", "recombinant UMI read abundance (log10)": 0.00732}
{"sequence": "TGCTCGGCATGGACCGGTTTTCCCGGTAATCCGTATTTGGT (site TGCTCGGCTAC)", "recombinant UMI read abundance (log10)": 0.0236}
{"sequence": "TGCTCGGCATGGACCGGTTTTCCCGGTAATCCGTATTTGGT (site TGCTGGGCTAC)", "recombinant UMI read abundance (log10)": 0.00677}
{"sequence": "TGCTCGGCATGGACCGGTTTTCCCGGTAATCCGTATTTGGT (site TGCTTGGCTAC)", "recombinant UMI read abundance (log10)": 0.00594}
{"sequence": "TGCTGAGCATGGACCGGTTTTCCCGGTAATCCGTATTTGAT (site TGCTGAGCTAT)", "recombinant UMI read abundance (log10)": 1.36}
{"sequence": "TGCTTCGCATGGACCGGTTTTCCCGGTAATCCGTATTTGTC (site TGCTTCGCTGA)", "recombinant UMI read abundance (log10)": 0.542}
{"sequence": "TGGAATACATGGACCGGTTTTCCCGGTAATCCGTATTTGCA (site TAGAATACTTG)", "recombinant UMI read abundance (log10)": 0.91}
{"sequence": "TGGAATACATGGACCGGTTTTCCCGGTAATCCGTATTTGCA (site TCGAATACTTG)", "recombinant UMI read abundance (log10)": 0.55}
{"sequence": "TGGAATACATGGACCGGTTTTCCCGGTAATCCGTATTTGCA (site TGGAATACTTG)", "recombinant UMI read abundance (log10)": 1.86}
{"sequence": "TGGAATACATGGACCGGTTTTCCCGGTAATCCGTATTTGCA (site TTGAATACTTG)", "recombinant UMI read abundance (log10)": 0.00597}
{"sequence": "TGGAATCCATGGACCGGTTTTCCCGGTAATCCGTATTTGTG (site CGGAATCCTAA)", "recombinant UMI read abundance (log10)": 0.00353}
{"sequence": "TGGAATCCATGGACCGGTTTTCCCGGTAATCCGTATTTGTG (site TGGAATCCTCA)", "recombinant UMI read abundance (log10)": 0.604}
{"sequence": "TGGAATGCATGGACCGGTTTTCCCGGTAATCCGTATTTGTT (site CGGAATCCTAA)", "recombinant UMI read abundance (log10)": 0.00325}
{"sequence": "TGGAATGCATGGACCGGTTTTCCCGGTAATCCGTATTTGTT (site TGGAATGCTAA)", "recombinant UMI read abundance (log10)": 1.71}
{"sequence": "TGGACACCATGGACCGGTTTTCCCGGTAATCCGTATTTGAC (site TGAACACCTGT)", "recombinant UMI read abundance (log10)": 0}
{"sequence": "TGGACACCATGGACCGGTTTTCCCGGTAATCCGTATTTGAC (site TGCACACCTGT)", "recombinant UMI read abundance (log10)": 0}
{"sequence": "TGGACACCATGGACCGGTTTTCCCGGTAATCCGTATTTGAC (site TGGACACCTGT)", "recombinant UMI read abundance (log10)": 0}
{"sequence": "TGGACACCATGGACCGGTTTTCCCGGTAATCCGTATTTGAC (site TGTACACCTGT)", "recombinant UMI read abundance (log10)": 0}
{"sequence": "TGGAGTGCATGGACCGGTTTTCCCGGTAATCCGTATTTGAC (site TGGAGTGCTGT)", "recombinant UMI read abundance (log10)": 2.21}
{"sequence": "TGGATACCATGGACCGGTTTTCCCGGTAATCCGTATTTGTT (site TGGATACCTAA)", "recombinant UMI read abundance (log10)": 0}
{"sequence": "TGGATGACATGGACCGGTTTTCCCGGTAATCCGTATTTGCA (site AGGAAGACTTG)", "recombinant UMI read abundance (log10)": 0.54}
{"sequence": "TGGATGACATGGACCGGTTTTCCCGGTAATCCGTATTTGCA (site TGGATGACTTG)", "recombinant UMI read abundance (log10)": 2.44}
{"sequence": "TGGATGTCATGGACCGGTTTTCCCGGTAATCCGTATTTGAA (site TGGATGTCTTT)", "recombinant UMI read abundance (log10)": 2.11}
{"sequence": "TGGCAAGCATGGACCGGTTTTCCCGGTAATCCGTATTTGTC (site TGGCAAGCTGA)", "recombinant UMI read abundance (log10)": 0}
{"sequence": "TGGCCCGCATGGACCGGTTTTCCCGGTAATCCGTATTTGGC (site TGGCCAGCTGC)", "recombinant UMI read abundance (log10)": 0}
{"sequence": "TGGCCCGCATGGACCGGTTTTCCCGGTAATCCGTATTTGGC (site TGGCCCGCTGC)", "recombinant UMI read abundance (log10)": 0.649}
{"sequence": "TGGCCCGCATGGACCGGTTTTCCCGGTAATCCGTATTTGGC (site TGGCCGGCTGC)", "recombinant UMI read abundance (log10)": 0}
{"sequence": "TGGCCCGCATGGACCGGTTTTCCCGGTAATCCGTATTTGGC (site TGGCCTGCTGC)", "recombinant UMI read abundance (log10)": 0}
{"sequence": "TGGCCGACATGGACCGGTTTTCCCGGTAATCCGTATTTGGG (site TGGCCGACTCC)", "recombinant UMI read abundance (log10)": 0}
{"sequence": "TGGCCGCCATGGACCGGTTTTCCCGGTAATCCGTATTTGGC (site TGGCCGACTGC)", "recombinant UMI read abundance (log10)": 0.0204}
{"sequence": "TGGCCGCCATGGACCGGTTTTCCCGGTAATCCGTATTTGGC (site TGGCCGCCTGC)", "recombinant UMI read abundance (log10)": 0}
{"sequence": "TGGCCGCCATGGACCGGTTTTCCCGGTAATCCGTATTTGGC (site TGGCCGGCTGC)", "recombinant UMI read abundance (log10)": 0}
{"sequence": "TGGCCGCCATGGACCGGTTTTCCCGGTAATCCGTATTTGGC (site TGGCCGTCTGC)", "recombinant UMI read abundance (log10)": 0}
{"sequence": "TGGCCGGCATGGACCGGTTTTCCCGGTAATCCGTATTTGGC (site AGGCCGGCTGC)", "recombinant UMI read abundance (log10)": 0}
{"sequence": "TGGCCGGCATGGACCGGTTTTCCCGGTAATCCGTATTTGGC (site CGGCCGGCTGC)", "recombinant UMI read abundance (log10)": 0}
{"sequence": "TGGCCGGCATGGACCGGTTTTCCCGGTAATCCGTATTTGGC (site GGGCCGGCTGC)", "recombinant UMI read abundance (log10)": 0}
{"sequence": "TGGCCGGCATGGACCGGTTTTCCCGGTAATCCGTATTTGGC (site TAGCCGGCTGC)", "recombinant UMI read abundance (log10)": 0}
{"sequence": "TGGCCGGCATGGACCGGTTTTCCCGGTAATCCGTATTTGGC (site TCGCCGGCTGC)", "recombinant UMI read abundance (log10)": 0}
{"sequence": "TGGCCGGCATGGACCGGTTTTCCCGGTAATCCGTATTTGGC (site TGACCGGCTGC)", "recombinant UMI read abundance (log10)": 0}
{"sequence": "TGGCCGGCATGGACCGGTTTTCCCGGTAATCCGTATTTGGC (site TGCCCGGCTGC)", "recombinant UMI read abundance (log10)": 0}
{"sequence": "TGGCCGGCATGGACCGGTTTTCCCGGTAATCCGTATTTGGC (site TGGACGGCTGC)", "recombinant UMI read abundance (log10)": 0}
{"sequence": "TGGCCGGCATGGACCGGTTTTCCCGGTAATCCGTATTTGGC (site TGGCAGGCTGC)", "recombinant UMI read abundance (log10)": 0}
{"sequence": "TGGCCGGCATGGACCGGTTTTCCCGGTAATCCGTATTTGGC (site TGGCCAGCTGC)", "recombinant UMI read abundance (log10)": 0}
{"sequence": "TGGCCGGCATGGACCGGTTTTCCCGGTAATCCGTATTTGGC (site TGGCCCGCTGC)", "recombinant UMI read abundance (log10)": 0}
{"sequence": "TGGCCGGCATGGACCGGTTTTCCCGGTAATCCGTATTTGGC (site TGGCCGACTGC)", "recombinant UMI read abundance (log10)": 0}
{"sequence": "TGGCCGGCATGGACCGGTTTTCCCGGTAATCCGTATTTGGC (site TGGCCGCCTGC)", "recombinant UMI read abundance (log10)": 0}
{"sequence": "TGGCCGGCATGGACCGGTTTTCCCGGTAATCCGTATTTGGC (site TGGCCGGCTAC)", "recombinant UMI read abundance (log10)": 0.0414}
{"sequence": "TGGCCGGCATGGACCGGTTTTCCCGGTAATCCGTATTTGGC (site TGGCCGGCTCC)", "recombinant UMI read abundance (log10)": 0.0175}
{"sequence": "TGGCCGGCATGGACCGGTTTTCCCGGTAATCCGTATTTGGC (site TGGCCGGCTGA)", "recombinant UMI read abundance (log10)": 0}
{"sequence": "TGGCCGGCATGGACCGGTTTTCCCGGTAATCCGTATTTGGC (site TGGCCGGCTGC)", "recombinant UMI read abundance (log10)": 0.862}
{"sequence": "TGGCCGGCATGGACCGGTTTTCCCGGTAATCCGTATTTGGC (site TGGCCGGCTGG)", "recombinant UMI read abundance (log10)": 0}
{"sequence": "TGGCCGGCATGGACCGGTTTTCCCGGTAATCCGTATTTGGC (site TGGCCGGCTGT)", "recombinant UMI read abundance (log10)": 0}
{"sequence": "TGGCCGGCATGGACCGGTTTTCCCGGTAATCCGTATTTGGC (site TGGCCGGCTTC)", "recombinant UMI read abundance (log10)": 0.00718}
{"sequence": "TGGCCGGCATGGACCGGTTTTCCCGGTAATCCGTATTTGGC (site TGGCCGTCTGC)", "recombinant UMI read abundance (log10)": 0}
{"sequence": "TGGCCGGCATGGACCGGTTTTCCCGGTAATCCGTATTTGGC (site TGGCCTGCTGC)", "recombinant UMI read abundance (log10)": 0}
{"sequence": "TGGCCGGCATGGACCGGTTTTCCCGGTAATCCGTATTTGGC (site TGGCGGGCTGC)", "recombinant UMI read abundance (log10)": 0}
{"sequence": "TGGCCGGCATGGACCGGTTTTCCCGGTAATCCGTATTTGGC (site TGGCTGGCTGC)", "recombinant UMI read abundance (log10)": 0}
